The record followed here is patent US7776917B2, “Non-standard amino acid conjugates of amphetamine and processes for making and using the same” (priority 2006, dated 2010).

Where two headings read alike, the source gives them in different places. Bounds are passed on as bounds.

The nature of series [1]: Intranasal PK study d-amphetamine, hArg-Amp, Orn-Amp (Example 10). The note with it: […] equivalent, n=5, d-amphetamine in plasma, given in minutes.
A short description of series [2]: Intravenous PK study d-amphetamine, hArg-Amp, Orn-Amp (Example 11). To be noted: […] equivalent, n=5, d-amphetamine in plasma.
The conditions of series [3]: oral; hArg-Amp = 100%.
Series [4] can be described thus: Parenteral (intranasal, intravenous) administration of hArg-Amp, release of amphetamine (Example 1). To be noted: parenteral routes (intranasal, intravenous).
A short description of series [5]: Oral PK study Lys-Amp, hArg-Amp, Orn-Amp, Cit-Amp (Example 9). To be noted: in words.
Series [6] in a line: Average results of 4 oral PK studies, Lys-Amp vs hArg-Amp (Example 7). The note with it: average of 4 oral studies, n=20; Lys-Amp = 100%.

For the molecule `C[C@H](N)Cc1ccccc1` [d-amp, d-amphetamine], the Tmax in series [1] and in series [2] was 15 m in each case.
With `C[C@@H](Cc1ccccc1)NC(=O)[C@@H](N)CCCCN=C(N)N.Cl.Cl` [hArg-Amp, l-homoarginine-d-amphetamine Dihydrochloride], the “% Tmax” value in series [3] worked out at 100%. Besides, the release of amphetamine in series [4] is listed as under 50%.
As to “l-citrulline-d-amphetamine hydrochloride [Cit-Amp]”, the “Tmax compared to Lys-Amp” value in series [5] is listed as “significantly shifted the Tmax”.
As for l-lysine-d-amphetamine [Lys-Amp], in series [6], the “% Tmax” value stood at 100%.
